The results in this text go back to patent US20090162305A1, “FORMULATIONS OF LOW OIL CONTENT COMPRISING […] DERIVATIVES” (SYMRISE GmbH & Co. KG, priority 2006, published 2009).

The nature of this test: ABTS assay, cell-free in vitro test of antioxidative capacity. Format: biochemical. An excerpt:
ABTS assay is a cell-free in vitro test for evaluation of antioxidative capacity (literature: Re R, Pellegrini N, Proteggente A, Pannala A, Yang M, Rice-Evans C. 1999. “Antioxidant activity applying an improved ABTS radical cation decolorization assay”; Free Radic. Biol. Med. 26: 1231-7). The assay uses the intrinsic colouration of a solution prepared with the cationic radical 2,2′-azinobis(3-ethylbenzothiazoline-6-sulfonic acid) (ABTS+) and potassium persulfate, which is decolourized by addition of antioxidants (reduction of the cationic radical). This decolouration can be measured photometrically at 734 nm. The test is carried out in 96-well microtitre plates. […] All the ABTS test results result from two independent experiments and are presented as means with the associated deviation from the mean.
In order to test whether the antioxidative activity of styrylresorcinol (formula 3; CARN 85-27-8; 4-(1-phenylethyl)-1,3-dihydroxybenzene) is adversely influenced by the presence of significant amounts of oily phase, in a further experiment the antioxidative capacity of two products comprising 30 percent by weight of 2-ethylhexyl isononanoate (INCI Ethylhexyl Isononanoate; product A) and, respectively, 5 percent by weight of 2-ethylhexyl isononanoate (INCI Ethylhexyl Isononanoate; product B) was determined with the aid of ABTS assay.

Consider `CC(c1ccccc1)c1ccc(O)cc1O` (stereo not drawn) [Styrylresorcinol, 4-(1-phenylethyl)-1,3-dihydroxybenzene], for which, for the setting “5% of oily phase”, the “reduction in the antioxidative capacity compared with the oil-free reference sample” value worked out at 1.6%. Where the note is “30% of oily phase, 0.01% styrylresorcinol”, the “deterioration in the antioxidative capacity compared with the oil-free reference sample” value is recorded as 13.5%. Further, under “ABTS, versus alpha-tocopherol”, the “antioxidative capacity greater than that of the reference substance alpha-tocopherol, factor” value was around 2. Besides, the antioxidative capacity by setting is: (ethanolic solution containing 0.01% styrylresorcinol with 30% of oily phase (product A)) 79.4%; (mixture according to the invention comprising only 5% of oily phase (product B)) 91.35; (oil-free reference sample containing only 0.01% styrylresorcinol (product C)) 92.9%.
